target: BRD4 protein (Homo sapiens, UniProt O60885); assay: FRET assay, half maximal inhibitory concentration (IC50); format: binding; conditions: BRD4 protein 50 nM, Biotin-H4KAc4 peptide 12.5 nM; A Further List of Classification
In short: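 HTRF: 50 nM BRD4 preincubated 30 min at room temperature with compound (10-fold series from 50 μM in 12.5% DMSO) in 50 mM HEPES pH 7.5, 100 mM NaCl, 0.05% CHAPS. Then 12.5 nM biotin-H4KAc4 peptide for 30 min, and anti-GST XL665 (10 nM) plus streptavidin cryptate (2.4 nM) with 0.4 M KF for 1 h. IC50 by variable-slope fit.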

IC50 | SMILES
< 200 nM | Cc1cc(O)nc2ccc(NC(=O)c3cc(S(=O)(=O)N(C)C)ccc3N3CCCCC3c3ccccc3)cc12 (centres unmarked) [S67, 5-(dimethylsulfamoyl)-N-(2-hydroxy-4-methyl-6-quinolyl)-2-(2-phenyl-1-piperidyl)benzamide]
500 to 1000 nM | COC1CCN(c2ccc(S(=O)(=O)N(C)C)cc2C(=O)Nc2ccc3nc(O)cc(C)c3c2)C1 (centres unmarked) [S43, 5-(dimethylsulfamoyl)-N-(2-hydroxy-4-methyl-6-quinolyl)-2-(3-methoxypyrrolidin-1-yl)benzamide]
200 to 500 nM | Cc1cc(O)nc2ccc(NC(=O)c3cc(CN4CCOCC4)cnc3N3CCC(C)(F)C3)cc12 (centres unmarked) [S97, 2-(3-fluoro-3-methyl-pyrrolidin-1-yl)-N-(2-hydroxy-4-methyl-6-quinolyl)-5-(morpholinomethyl)pyridine-3-carboxamide]
1000 to 10000 nM | Cc1cc(O)nc2ccc(NC(=O)c3cc(CN4CCOCC4)cnc3N3CCC(CC(C)C)C3)cc12 (centres unmarked) [S101, N-(2-hydroxy-4-methyl-6-quinolyl)-2-(3-isobutylpyrrolidin-1-yl)-5-(morpholinomethyl)pyridine-3-carboxamide]
> 10000 nM | Cc1cc(O)nc2ccc(NC(=O)c3cccc(CN4CCCC4=O)c3)cc12 [S24, N-(2-hydroxy-4-methyl-6-quinolyl)-3-[(2-oxopyrrolidin-1-yl)methyl]benzamide, reference compound]
> 10000 nM | Cc1cc(O)nc2ccc(NC(=O)c3ccc(N)c([N+](=O)[O-])c3)cc12 [S30, 4-amino-N-(2-hydroxy-4-methyl-6-quinolyl)-3-nitro-benzamide, reference compound]
< 200 nM | COCC1CN(Cc2ccc(N3CCCC3)c(C(=O)Nc3ccc4nc(O)cc(C)c4c3)c2)C1 [S90, N-(2-hydroxy-4-methyl-6-quinolyl)-5-[[3-(methoxymethyl)azetidin-1-yl]methyl]-2-pyrrolidin-1-yl-benzamide]
500 to 1000 nM | Cc1cc(O)nc2ccc(NC(=O)c3cc(CN4CCOCC4)cnc3N3CCC(c4ccncc4)C3)cc12 (centres unmarked) [S111, N-(2-hydroxy-4-methyl-6-quinolyl)-5-(morpholinomethyl)-2-[3-(4-pyridyl)pyrrolidin-1-yl]pyridine-3-carboxamide]
500 to 1000 nM | CCN(CC)S(=O)(=O)c1ccc(N2CCCC2)c(C(=O)Nc2ccc3nc(O)cc(C)c3c2)c1 [S71, 5-(diethylsulfamoyl)-N-(2-hydroxy-4-methyl-6-quinolyl)-2-pyrrolidin-1-yl-benzamide]
1000 to 10000 nM | CN1C(=O)CCc2cc(NC(=O)c3cc(S(N)(=O)=O)ccc3N3CCOCC3)ccc21 [S13, N-(1-methyl-2-oxo-3,4-dihydroquinolin-6-yl)-2-morpholino-5-sulfamoyl-benzamide]
< 200 nM | COCC1CCCN1c1ccc(S(=O)(=O)N(C)C)cc1C(=O)Nc1ccc2nc(O)cc(C)c2c1 (centres unmarked) [S53, 5-(dimethylsulfamoyl)-N-(2-hydroxy-4-methyl-6-quinolyl)-2-[2-(methoxymethyl)pyrrolidin-1-yl]benzamide]

same assay, conditions: BRD4 protein 50 nM, Biotin-H4KAc4 peptide 12.5 nM; List of Classification

IC50 | SMILES
< 200 nM | CN(C)S(=O)(=O)c1ccc(N2CCCC2)c(C(=O)Nc2ccc3c(c2)C(C)(C)CC(=O)N3)c1 [Compound-104, N-(4,4-dimethyl-2-oxo-1,3-dihydroquinolin-6-yl)-5-(dimethylsulfamoyl)-2-pyrrolidin-1-yl-benzamide]
< 200 nM | Cc1cc(O)nc2ccc(NC(=O)c3cc(C#N)ncc3N3CCOCC3)cc12 [Compound-116, 2-cyano-N-(2-hydroxy-4-methylquinolin-6-yl)-5-morpholinoisonicotinamide]
< 200 nM | COCC1CCCN1c1ccc(CN2CCOCC2)cc1C(=O)Nc1ccc2nc(O)cc(C)c2c1 (centres unmarked) [Compound-26, N-(2-hydroxy-4-methylquinolin-6-yl)-2-(2-(methoxymethyl)pyrrolidin-1-yl)-5-(morpholinomethyl) benzamide]
< 200 nM | Cc1cc(O)nc2ccc(NC(=O)c3cccnc3N3CCC(F)C3)cc12 (centres unmarked) [Compound-132, 2-(3-fluoropyrrolidin-1-yl)-N-(2-hydroxy-4-methyl-6-quinolyl)pyridine-3-carboxamide]
< 200 nM | Cc1cc(O)nc2ccc(NC(=O)c3cc(S(N)(=O)=O)ccc3N3CCOCC3)cc12 [Compound-70, N-(2-hydroxy-4-methyl-6-quinolyl)-2-morpholino-5-sulfamoyl-benzamide]
> 10000 nM | Cc1cc(O)nc2ccc(NC(=O)c3cc(S(=O)(=O)N(C)C)ccc3NCCN(C)C)cc12 [Compound-18, 2-(2-dimethylaminoethylamino)-5-(dimethylsulfamoyl)-N-(2-hydroxy-4-methyl-6-quinolyl)benzamide]
< 200 nM | Cc1cc(O)nc2ccc(NC(=O)c3cc(-c4cnoc4)cnc3N3CCOCC3)cc12 [Compound-176, N-(2-hydroxy-4-methylquinolin-6-yl)-5-(isoxazol-4-yl)-2-morpholinonicotinamide]
> 10000 nM | Cc1cc(O)nc2ccc(NC(=O)c3cc(S(=O)(=O)N(C)C)ccc3NCCO)cc12 [Compound-19, 5-(dimethylsulfamoyl)-2-(2-hydroxyethylamino)-N-(2-hydroxy-4-methyl-6-quinolyl)benzamide]
1000 to 10000 nM | Cc1cc(O)nc2ccc(NC(=O)c3nc(CN(C)C)ccc3N3CCCC3)cc12 [Compound-37]
200 to 500 nM | Cc1cc(O)nc2ccc(NC(=O)c3cc(NCC(N)=O)cnc3N3CCCC3)cc12 [Compound-25, 5-[(2-amino-2-oxo-ethyl)amino]-N-(2-hydroxy-4-methyl-6-quinolyl)-2-pyrrolidin-1-yl-pyridine-3-carboxamide]
200 to 500 nM | Cc1cc(O)nc2ccc(NC(=O)c3nc(C(N)=O)ccc3N3CCCC3)cc12 [Compound-40, N2-(2-hydroxy-4-methylquinolin-6-yl)-3-(pyrrolidin-1-yl)pyridine-2,6-dicarboxamide]
< 200 nM | COc1cc(NC(=O)c2cc(-c3ccoc3)cnc2N2CCOCC2)cc2c(C)cc(O)nc12 [Compound-189, 5-(furan-3-yl)-N-(2-hydroxy-8-methoxy-4-methylquinolin-6-yl)-2-morpholinonicotinamide]
< 200 nM | Cc1cc(O)nc2ccc(NC(=O)c3cccnc3N3C4CCC3COC4)cc12 [Compound-144, N-(2-hydroxy-4-methyl-6-quinolyl)-2-(3-oxa-8-azabicyclo[3.2.1]octan-8-yl)pyridine-3-carboxamide]
< 200 nM | Cc1cc(O)nc2ccc(NC(=O)c3cccnc3N3CCC(F)(F)CC3)cc12 [Compound-146, 2-(4,4-difluoro-1-piperidyl)-N-(2-hydroxy-4-methyl-6-quinolyl)pyridine-3-carboxamide]
< 200 nM | Cc1cc(O)nc2ccc(NC(=O)c3cc(C(N)=O)ncc3N3CCCC3)cc12 [Compound-202, N4-(2-hydroxy-4-methylquinolin-6-yl)-5-(pyrrolidin-1-yl)pyridine-2,4-dicarboxamide]
1000 to 10000 nM | CN(C)S(=O)(=O)c1ccc(N2CCOCC2)c(C(=O)Nc2ccc3[nH]c(=O)cc(C(F)(F)F)c3c2)c1 [Compound-79, 5-(dimethylsulfamoyl)-2-morpholino-N-[2-oxo-4-(trifluoromethyl)-1H-quinolin-6-yl]benzamide]
< 200 nM | Cc1cc(O)nc2ccc(NC(=O)c3cc(CN4CCOCC4)ccc3N3CCCC3)cc12 [Compound-3, N-(2-hydroxy-4-methylquinolin-6-yl)-5-(morpholinomethyl)-2-(pyrrolidin-1-yl)benzamide]
1000 to 10000 nM | Cc1cc(O)nc2ccc(NC(=O)c3cc(CN4CCOCC4)cnc3N3CCCC3)nc12 [Compound-93, N-(8-methyl-6-oxo-5H-1,5-naphthyridin-2-yl)-5-(morpholinomethyl)-2-pyrrolidin-1-yl-pyridine-3-carboxamide]
< 200 nM | Cc1cc2nc(O)cc(C)c2cc1NC(=O)c1cc(-c2ccoc2)cnc1N1CCOCC1 [Compound-191, 5-(furan-3-yl)-N-(2-hydroxy-4,7-dimethylquinolin-6-yl)-2-morpholinonicotinamide]
< 200 nM | Cc1cc2nc(O)cc(C)c2cc1NC(=O)c1cc(CN2CCOCC2)ccc1N1CCCC1 [Compound-29, N-(2-hydroxy-4,7-dimethylquinolin-6-yl)-5-(morpholinomethyl)-2-(pyrrolidin-1-yl)benzamide]
< 200 nM | Cc1cc(O)nc2ccc(NC(=O)c3cc(Cl)cnc3N3CCOCC3)cc12 [Compound-140, 5-chloro-N-(2-hydroxy-4-methyl-6-quinolyl)-2-morpholino-pyridine-3-carboxamide]
< 200 nM | Cc1cc(O)nc2ccc(NC(=O)c3cc(OC(F)(F)F)ccc3N3CCCC3CN(C)C)cc12 (centres unmarked) [Compound-51, 2-(2-((dimethylamino)methyl)pyrrolidin-1-yl)-N-(2-hydroxy-4-methylquinolin-6-yl)-5-(trifluoromethoxy) benzamide]
< 200 nM | Cc1cc(O)nc2ccc(NC(=O)c3cc(C(=O)N(C)C)ccc3N3CCOCC3)cc12 [Compound-9, N3-(2-hydroxy-4-methyl-6-quinolyl)-N1,N1-dimethyl-4-morpholino-benzene-1,3-dicarboxamide]
500 to 1000 nM | Cc1cc(O)nc2ccc(NC(=O)c3cc(N)ccc3N3CCOCC3)cc12 [Compound-54, 5-amino-N-(2-hydroxy-4-methyl-6-quinolyl)-2-morpholino-benzamide]
< 200 nM | O=C(Nc1ccc2nc(O)cc(Cl)c2c1)c1cc(CN2CCOCC2)cnc1N1CCOCC1 [Compound-91, N-(4-chloro-2-hydroxy-6-quinolyl)-2-morpholino-5-(morpholinomethyl)pyridine-3-carboxamide]
< 200 nM | Cc1cc(O)nc2ccc(NC(=O)c3cc(S(=O)(=O)N(C)C)ccc3N3CCN(C)CC3)cc12 [Compound-15, 5-(N, N-dimethylsulfamoyl)-N-(2-hydroxy-4-methylquinolin-6-yl)-2-(4-methylpiperazin-1-yl) benzamide]
< 200 nM | Cc1cc(O)nc2ccc(NC(=O)c3cc(S(=O)(=O)N(C)C)cnc3N3CCC(F)C3)cc12 (centres unmarked) [Compound-199, 5-(N,N-dimethylsulfamoyl)-2-(3-fluoropyrrolidin-1-yl)-N-(2-hydroxy-4-methylquinolin-6-yl)nicotinamide]
